Results reported in the NIST ThermoML archive (doi:10.1021/je100068y).
Numbers after ± are expanded uncertainties.

Assay: mn = molality of the nth substance listed, in mol/kg
Conditions: 101.33 kPa, Liquid

CC(C)[C@H](NC(=O)CN)C(=O)O [glycyl-L-valine] + O
mass density [kg/m3]
Conditions	m1 = 0.02257	m1 = 0.03982	m1 = 0.06066	m1 = 0.07858	m1 = 0.1017	m1 = 0.1513	m1 = 0.1791	m1 = 0.2026
298.15 K	998.221 ± 0.14	999.108 ± 0.14	1000.17 ± 0.13	1001.09 ± 0.14	1002.26 ± 0.14	1004.75 ± 0.14	1006.13 ± 0.14	1007.28 ± 0.15
303.15 K	996.723 ± 0.14	997.606 ± 0.14	998.679 ± 0.14	999.59 ± 0.13	1000.76 ± 0.14	1003.24 ± 0.14	1004.65 ± 0.14	1005.79 ± 0.14
308.15 K	995.192 ± 0.14	996.067 ± 0.14	997.129 ± 0.14	998.03 ± 0.14	999.181 ± 0.14	1001.63 ± 0.14	1003.01 ± 0.14	1004.11 ± 0.14
313.15 K	993.535 ± 0.14	994.395 ± 0.14	995.435 ± 0.14	996.317 ± 0.14	997.462 ± 0.14	999.879 ± 0.14	1001.22 ± 0.14	1002.29 ± 0.14

CC(C)C[C@H](NC(=O)CN)C(=O)O [glycyl-L-leucine] + O
mass density [kg/m3]
Conditions	m1 = 0.01944	m1 = 0.02958	m1 = 0.0395	m1 = 0.04928	m1 = 0.057	m1 = 0.07128	m1 = 0.09125	m1 = 0.1001
298.15 K	997.991 ± 0.14	998.487 ± 0.14	998.954 ± 0.14	999.428 ± 0.14	999.792 ± 0.13	1000.49 ± 0.14	1001.44 ± 0.14	1001.85 ± 0.14
303.15 K	996.492 ± 0.14	996.981 ± 0.14	997.455 ± 0.14	997.926 ± 0.14	998.294 ± 0.14	998.981 ± 0.14	999.94 ± 0.13	1000.35 ± 0.13
308.15 K	994.971 ± 0.14	995.453 ± 0.14	995.927 ± 0.14	996.398 ± 0.14	996.773 ± 0.14	997.443 ± 0.14	998.415 ± 0.14	998.822 ± 0.14
313.15 K	993.308 ± 0.14	993.787 ± 0.14	994.248 ± 0.14	994.705 ± 0.14	995.068 ± 0.14	995.712 ± 0.14	996.655 ± 0.14	997.07 ± 0.14

NCC(=O)NCC(=O)O [glycylglycine] + O
mass density [kg/m3]
Conditions	m1 = 0.0294	m1 = 0.04517	m1 = 0.06076	m1 = 0.07901	m1 = 0.1051	m1 = 0.1496	m1 = 0.2003	m1 = 0.257	m1 = 0.3022
298.15 K	998.688 ± 0.14	999.547 ± 0.14	1000.42 ± 0.14	1001.42 ± 0.14	1002.86 ± 0.14	1005.27 ± 0.14	1007.99 ± 0.15	1011.04 ± 0.15	1013.4 ± 0.16
303.15 K	997.189 ± 0.14	998.051 ± 0.14	998.909 ± 0.14	999.898 ± 0.13	1001.33 ± 0.14	1003.76 ± 0.14	1006.46 ± 0.14	1009.51 ± 0.15	1011.87 ± 0.15
308.15 K	995.661 ± 0.14	996.52 ± 0.14	997.375 ± 0.14	998.349 ± 0.14	999.766 ± 0.14	1002.15 ± 0.14	1004.89 ± 0.14	1007.83 ± 0.15	1010.28 ± 0.15
313.15 K	994.003 ± 0.14	994.856 ± 0.14	995.681 ± 0.14	996.677 ± 0.14	998.065 ± 0.14	1000.44 ± 0.14	1003.12 ± 0.14	1006.06 ± 0.14	1008.41 ± 0.15

O [water] + NCC(=O)NCC(=O)O
m2 = 0
Conditions	mass density [kg/m3]
303.15 K	995.55 ± 0.14
313.15 K	992.392 ± 0.14
